# Assay results taken from patent US11813239B2, “Compositions and methods for improving cardiac structure and/or function” (Wisconsin Alumni Research Foundation, priority 2020, dated 2023).
# “Also recorded” adds a separate entry of the source.
# System: adult cardiomyocytes
# Assay: Histology after adult MI (TTC, TUNEL, pH3, Aurora B, BrdU, nucleation, γH2AX, trichrome, WGA, coronary casting, PECAM/α-SMA)
# Type: in vivo, mouse
# [1] = dimethyl malonate 100 mg/kg daily for 2 weeks, 28 days post-MI
# [2] = dimethyl malonate 100 mg/kg daily for 2 weeks, 28 days post-MI, vs controls
# [3] = dimethyl malonate 100 mg/kg daily, 14 days post-MI
smiles,measurement,setting,value
"COC(=O)CC(=O)OC [Malonate, dimethyl malonate]","fibrosis (trichrome staining, quantification)","dimethyl malonate 100 mg/kg daily for 2 weeks, 14 days post-MI, vs controls, difference was not significant",trend for reduction in fibrosis
same,"capillary density and vascular smooth muscle cells in the infarct zone (PECAM, α-SMA)",[1],significant increase in capillary density and vascular smooth muscle cells
same,scar size (quantification of fibrosis),[1],significant reduction of scar size
same,cardiomyocyte size (WGA staining),[2],significant reduction in cardiomyocyte size
same,coronary artery formation / revascularization of the infarct zone (coronary casting),[2],Re-vascularization in the infarcted zone was also induced; also recorded: remarkable formation of coronary arteries below the ligature site
same,heart weight to body weight ratios,"dimethyl malonate 100 mg/kg daily for 2 weeks, 28 days post-MI, vs saline",No significant differences
same,cardiac structure (trichrome staining),"dimethyl malonate 100 mg/kg daily for 2 weeks, 28 days post-MI, vs saline controls",complete restoration of the myocardium with minimal fibrosis; also recorded: remarkable restoration of the myocardium with minimal fibrosis
same,number of apoptotic cardiomyocytes (TUNEL staining),"dimethyl malonate 100 mg/kg daily, 3- or 7-days post-MI, vs saline",no difference in the number of apoptotic cardiomyocytes
same,BrdU incorporation in cardiomyocytes,[3],significant increase in 5-bromodeoxyuridine (BrdU) incorporation
same,number of binucleated cardiomyocytes,[3],significant decrease in the number of binucleated cardiomyocytes
same,number of mononucleated cardiomyocytes,[3],remarkable increase in the number of mononucleated cardiomyocytes
same,cardiomyocytes with γH2AX foci (DNA damage),"dimethyl malonate 100 mg/kg daily, vs controls",significant decrease in the number of cardiomyocytes with γH2AX foci
same,"non-viable myocardium, myocardial necrosis (TTC viability stain)","dimethyl malonate 100 mg/kg from within an hour post-MI, daily, 3 days post-MI, vs saline",no significant difference
same,gross morphology of the heart,"dimethyl malonate 100 mg/kg intraperitoneally for two weeks, 28 days post-MI, vs controls",more muscularized ventricle
same,"vascular density in the infarct zone (MICROFIL casting, ImageJ region of interest)","malonate, 28 days post-MI, vs controls",significant increase in vascular density in the infarct zone
